Reference: ChEMBL document CHEMBL3085759, “Structure-activity relationship (SAR) and preliminary mode of action studies of 3-substituted benzylthioquinolinium iodide as anti-opportunistic infection agents” (Eur J Med Chem, 2013)
Values after ≈ are worked out from the molar mass of the structure shown.

Legend:
[1] = tested on: Nakaseomyces glabratus; test: Antimicrobial activity against Candida glabrata by Alamar blue method; type: functional, organism-based
[2] = tested on: Cryptococcus neoformans; test: Antimicrobial activity against Cryptococcus neoformans ATCC 90113 by Alamar blue method; type: functional, organism-based
[3] = tested on: Vero; test: Cytotoxicity against african green monkey Vero cells at 10 ug/ml after 48 hrs by Neutral Red dye assay; type: cell-based; details: chlorocebus sabaeus
[4] = tested on: Pichia kudriavzevii; test: Antimicrobial activity against Candida krusei ATCC 6258 by Alamar blue method; type: functional, organism-based
[5] = tested on: Staphylococcus aureus; test: Antimicrobial activity against methicillin-resistant Staphylococcus aureus ATCC 33591 by Alamar blue method; type: functional, organism-based
[6] = tested on: Mycobacterium intracellulare; test: Antimicrobial activity against Mycobacterium intracellulare ATCC 23068 by Alamar blue method; type: functional, organism-based
[7] = tested on: Candida albicans; test: Antimicrobial activity against Candida albicans ATCC 90028 by Alamar blue method; type: functional, organism-based
[8] = tested on: Aspergillus fumigatus; test: Antimicrobial activity against Aspergillus fumigatus ATCC 204305 by Alamar blue method; type: functional, organism-based
[9] = tested on: Staphylococcus aureus; test: Antimicrobial activity against Staphylococcus aureus ATCC 29213 by Alamar blue method; type: functional, organism-based; details: Staphylococcus aureus, ATCC 29213; for IC50: read-out: IC50

N#Cc1ccccc1CSc1cc2ccccc2[n+](CCCCCC2CCCCC2)c1.[I-]
IC50 [1]: > 20 mg/L
MFC [1]: > 20 mg/L
MIC [1]: > 20 mg/L
IC50 [2]: 0.5 mg/L
MFC [2]: 2.5 mg/L
MIC [2]: 1.3 mg/L
Activity [3]: Non-toxic
IC50 [4]: 1.5 mg/L
MFC [4]: 5 mg/L
MIC [4]: 5 mg/L
IC50 [5]: 0.97 mg/L
MBC [5]: 10 mg/L
MIC [5]: 2.5 mg/L
IC50 [6]: 6.8 mg/L
MBC [6]: 10 mg/L
MIC [6]: 10 mg/L
IC50 [7]: 1.6 mg/L
MFC [7]: 10 mg/L
MIC [7]: 5 mg/L
IC50 [8]: 11 mg/L
MFC [8]: 20 mg/L
MIC [8]: 20 mg/L
MBC [9]: 5 mg/L
MIC [9]: 1.3 mg/L
IC50 [9]: 0.68 mg/L

N#Cc1cccc(CSc2cc3ccccc3[n+](CCCCCC3CCCCC3)c2)c1.[I-]
IC50 [1]: 4.7 mg/L
MFC [1]: 10 mg/L
MIC [1]: 10 mg/L
IC50 [2]: 1.1 mg/L
MFC [2]: 5 mg/L
MIC [2]: 2.5 mg/L
Activity [3]: Non-toxic
IC50 [4]: 1.1 mg/L
MFC [4]: 2.5 mg/L
MIC [4]: 2.5 mg/L
IC50 [5]: 0.72 mg/L
MBC [5]: 5 mg/L
MIC [5]: 1.3 mg/L
IC50 [6]: 4.8 mg/L
MBC [6]: 10 mg/L
MIC [6]: 5 mg/L
IC50 [7]: 4.3 mg/L
MFC [7]: 20 mg/L
MIC [7]: 10 mg/L
IC50 [8]: 8.6 mg/L
MFC [8]: 20 mg/L
MIC [8]: 20 mg/L
MBC [9]: 2.5 mg/L
MIC [9]: 1.3 mg/L
IC50 [9]: 0.69 mg/L

CC(C)(C)c1ccc(CSc2cc3ccccc3[n+](CCCCCC3CCCCC3)c2)cc1.[I-]
IC50 [1]: > 20 mg/L
MFC [1]: > 20 mg/L
MIC [1]: > 20 mg/L
MFC [2]: 10 mg/L
MIC [2]: 1.3 mg/L
Activity [3]: Non-toxic
IC50 [4]: 1.2 mg/L
MFC [4]: 20 mg/L
MIC [4]: 20 mg/L
IC50 [5]: 12 mg/L
MBC [5]: > 20 mg/L
MIC [5]: 20 mg/L
IC50 [6]: > 20 mg/L
MBC [6]: > 20 mg/L
MIC [6]: > 20 mg/L
IC50 [7]: 20 mg/L
MFC [7]: > 20 mg/L
MIC [7]: > 20 mg/L
IC50 [8]: > 20 mg/L
MFC [8]: > 20 mg/L
MIC [8]: > 20 mg/L
MBC [9]: > 20 mg/L
MIC [9]: > 20 mg/L
IC50 [9]: > 20 mg/L

Cc1ccccc1CSc1cc2ccccc2[n+](CCCCCC2CCCCC2)c1.[I-]
IC50 [1]: 2.8 mg/L
MFC [1]: 5 mg/L
MIC [1]: 5 mg/L
IC50 [2]: 0.39 mg/L
MIC [2]: 0.63 mg/L
Activity [3]: Non-toxic
IC50 [4]: 0.84 mg/L
MFC [4]: 2.5 mg/L
MIC [4]: 2.5 mg/L
IC50 [5]: 0.73 mg/L
MBC [5]: 2.5 mg/L
MIC [5]: 1.3 mg/L
IC50 [6]: 6.7 mg/L
MBC [6]: 10 mg/L
MIC [6]: 10 mg/L
IC50 [7]: 1.4 mg/L
MIC [7]: 2.5 mg/L
IC50 [8]: 4.1 mg/L
MIC [8]: 10 mg/L
MBC [9]: 2.5 mg/L
MIC [9]: 0.63 mg/L
IC50 [9]: 0.4 mg/L

[I-].c1ccc(Oc2cc3ccccc3[n+](CCCCCC3CCCCC3)c2)cc1
IC50 [1]: > 20 mg/L
MFC [1]: > 20 mg/L
MIC [1]: > 20 mg/L
IC50 [2]: > 20 mg/L
MFC [2]: > 20 mg/L
MIC [2]: > 20 mg/L
IC50 [4]: > 20 mg/L
MFC [4]: > 20 mg/L
MIC [4]: > 20 mg/L
IC50 [5]: > 20 mg/L
MBC [5]: > 20 mg/L
MIC [5]: > 20 mg/L
IC50 [6]: > 20 mg/L
MBC [6]: > 20 mg/L
MIC [6]: > 20 mg/L
IC50 [7]: > 20 mg/L
MFC [7]: > 20 mg/L
MIC [7]: > 20 mg/L
IC50 [8]: > 20 mg/L
MFC [8]: > 20 mg/L
MIC [8]: > 20 mg/L
MBC [9]: > 20 mg/L
MIC [9]: > 20 mg/L
IC50 [9]: 19 mg/L

Cc1cc(C)c(CSc2cc3ccccc3[n+](CCCCCC3CCCCC3)c2)c(C)c1.[I-]
IC50 [1]: 1.7 mg/L
MFC [1]: 5 mg/L
MIC [1]: 5 mg/L
IC50 [2]: 0.32 mg/L
MFC [2]: 0.63 mg/L
MIC [2]: 0.63 mg/L
Activity [3]: Non-toxic
IC50 [4]: 0.44 mg/L
MFC [4]: 0.63 mg/L
MIC [4]: 0.63 mg/L
IC50 [5]: 0.23 mg/L
MBC [5]: 0.63 mg/L
MIC [5]: 0.63 mg/L
IC50 [6]: 2.9 mg/L
MBC [6]: 5 mg/L
MIC [6]: 5 mg/L
IC50 [7]: > 20 mg/L
MFC [7]: > 20 mg/L
MIC [7]: > 20 mg/L
IC50 [8]: 2.3 mg/L
MFC [8]: 5 mg/L
MIC [8]: 5 mg/L
MBC [9]: 1.3 mg/L
MIC [9]: 0.63 mg/L
IC50 [9]: 0.34 mg/L

[I-].c1ccc2c(c1)cc(SC1CCCCC1)c[n+]2CCCCCC1CCCCC1
IC50 [1]: 15 mg/L
MFC [1]: > 20 mg/L
MIC [1]: > 20 mg/L
IC50 [2]: 1.2 mg/L
MFC [2]: 2.5 mg/L
MIC [2]: 2.5 mg/L
IC50 [4]: 0.35 mg/L
MFC [4]: 2.5 mg/L
MIC [4]: 2.5 mg/L
IC50 [5]: 1.2 mg/L
MBC [5]: 10 mg/L
MIC [5]: 2.5 mg/L
IC50 [6]: 8.4 mg/L
MBC [6]: 10 mg/L
MIC [6]: 10 mg/L
IC50 [7]: > 20 mg/L
MFC [7]: > 20 mg/L
MIC [7]: > 20 mg/L
IC50 [8]: > 20 mg/L
MFC [8]: > 20 mg/L
MIC [8]: > 20 mg/L
MBC [9]: 10 mg/L
MIC [9]: 1.3 mg/L
IC50 [9]: 0.74 mg/L

Ic1cc2ccccc2[n+](CCCCCC2CCCCC2)c1.[I-]
IC50 [1]: > 20 mg/L
MFC [1]: > 20 mg/L
MIC [1]: > 20 mg/L
IC50 [2]: 5.8 mg/L
MFC [2]: 10 mg/L
MIC [2]: 10 mg/L
IC50 [4]: 1.7 mg/L
MFC [4]: 10 mg/L
MIC [4]: 10 mg/L
IC50 [5]: > 20 mg/L
MBC [5]: > 20 mg/L
MIC [5]: > 20 mg/L
IC50 [6]: > 20 mg/L
MBC [6]: > 20 mg/L
MIC [6]: > 20 mg/L
IC50 [7]: > 20 mg/L
MFC [7]: > 20 mg/L
MIC [7]: > 20 mg/L
IC50 [8]: > 20 mg/L
MFC [8]: > 20 mg/L
MIC [8]: > 20 mg/L
MBC [9]: > 20 mg/L
MIC [9]: > 20 mg/L
IC50 [9]: 18 mg/L

[I-].c1ccc(CCSc2cc3ccccc3[n+](CCCCCC3CCCCC3)c2)cc1
IC50 [1]: 9.5 mg/L
MFC [1]: > 20 mg/L
MIC [1]: 20 mg/L
IC50 [2]: 0.73 mg/L
MFC [2]: 1.3 mg/L
MIC [2]: 1.3 mg/L
IC50 [4]: 0.69 mg/L
MFC [4]: 5 mg/L
MIC [4]: 5 mg/L
IC50 [5]: 1.2 mg/L
MBC [5]: 10 mg/L
MIC [5]: 2.5 mg/L
IC50 [6]: 12 mg/L
MIC [6]: 20 mg/L
IC50 [7]: 3.6 mg/L
MFC [7]: > 20 mg/L
MIC [7]: > 20 mg/L
IC50 [8]: 19 mg/L
MFC [8]: > 20 mg/L
MIC [8]: > 20 mg/L
MBC [9]: 10 mg/L
MIC [9]: 1.3 mg/L
IC50 [9]: 0.73 mg/L

O=C(O)c1cn(C2CC2)c2cc(N3CCNCC3)c(F)cc2c1=O [CIPROFLOXACIN]
MIC [5]: 0.5 mg/L (≈ 1.51 µM)
IC50 [6]: 0.005 mg/L (≈ 0.0151 µM)
MIC [6]: 0.45 mg/L (≈ 1.36 µM)
MIC [9]: 0.5 mg/L (≈ 1.51 µM)

Fc1ccc(Oc2cc3ccccc3[n+](CCCCCC3CCCCC3)c2)cc1.[I-]
IC50 [1]: > 20 mg/L
MFC [1]: > 20 mg/L
MIC [1]: > 20 mg/L
IC50 [2]: 8.62 mg/L
MFC [2]: 10 mg/L
MIC [2]: 10 mg/L
IC50 [4]: > 20 mg/L
MFC [4]: > 20 mg/L
MIC [4]: > 20 mg/L
IC50 [5]: 14 mg/L
MBC [5]: > 20 mg/L
MIC [5]: > 20 mg/L
IC50 [6]: 20 mg/L
MBC [6]: 20 mg/L
MIC [6]: 20 mg/L
IC50 [7]: > 20 mg/L
MFC [7]: > 20 mg/L
MIC [7]: > 20 mg/L
IC50 [8]: > 20 mg/L
MFC [8]: > 20 mg/L
MIC [8]: > 20 mg/L
MBC [9]: > 20 mg/L
MIC [9]: 20 mg/L
IC50 [9]: 14 mg/L
